Like-named read-outs stand apart in the source and are kept apart here. Oligonucleotides are written 5' to 3', each unit as a sugar letter and its base; * is a phosphorothioate linkage, no mark a phosphodiester; rarer units and linkages stand in square brackets, end groups in braces. Plain capitals give the bases only. {Chol} = cholesterol conjugate; m = 2'-O-methyl; r = 2'-OH (RNA)
Experiments:
HaCaT cells [1] = test: Cytotoxicity (LDH, CytoTox96) and cell viability (CCK-8) in HaCaT cells; settings: 24 hours, LDH and CCK-8 assays, FIG. 6
Protocol: (§5) One day before treatment with cp-asiRNA(4)-1, 5.0×10^3MNT-1 cells or 1.0×10^4 HaCaT cells were seeded into 96 well plates. Immediately before treatment, the cells were washed with 1×DPBS buffer (Gibco), and then cultured in the presence of 1 μM or 3 μM of cp-asiRNATYR(4)-1 in OPTI-MEM buffer for 24 hours, at which point the cytotoxicity level was measured using a CytoTox96 Non-Radio Cytotoxicity assay (Promega) according to manufacturer's instructions. The media was then replaced with the serum-containing media and cell viability was measured using a cell counting kit-8 (Enzo) according to manufacturer's instructions.

tyrosinase protein [2] = test: Western blot of tyrosinase protein expression in treated MNT-1 cells; format: cell-based, human
Protocol: (§1) MNT-1 cells were cultured in Minimum Essential Media (Welgene) containing 20% fetal bovine serum (Gibco), 100 μg/ml penicillin/streptomycin, 10% 200 mM HEPES (Welgene) and 10% Dulbecco's modified Eagle's medium (Welgene). One day prior to treatment, 6.5×10^4MNT-1 cells were seeded in 12-well plates.
(§2) After 72 hours of cp-asiTYR(4)-1 incubation, the level of tyrosinase protein expression was determined via western blot. Briefly, the treated MNT-1 cells were lysed with RIPA buffer (GE). Fifteen μg of the total protein extract were loaded onto a 12% SDS-PAGE gel and electrophoresed at 120 V. After electrophoresis, the proteins were transferred to PVDF membrane (Bio-rad) already activated by methanol (Merck) for 1 hour at 300 mA. The membrane was blocked for 1 hour at the room temperature with 5% skim milk (Seoul Milk) and then incubated overnight at 4° C. in 5% skim milk containing anti-tyrosinase antibody (Santa Cruz) and anti-β-actin antibody (Santa Cruz). The membrane was then washed with 1×TBST for 10 minutes three times and was incubated for 1 hour at the room temperature in 5% skim milk with HRP-conjugated secondary antibody. The membrane was washed with 1×TBST for 10 minutes and treated with 1×ECL for 1 minute. The tyrosinase and β-actin bands were then imaged using a Chemidoc instrument (Bio-rad).
as §2, with “The level” for “After 72 hours of cp-asiTYR(4)-1 incubation, the level”, “expression by MNT-1 cells after treatment with 1 μM and 3 μM cp-asiRNAs” for “expression”, “the transfected” for “the treated”
The level of tyrosinase protein expression by MNT-1 cells after treatment with 1 μM, 0.6 μM, 0.3 μM and 0.1 μM cp-asiRNAs was determined via western blot. Briefly, the transfected MNT-1 cells were lysed with RIPA buffer (GE). […]

MNT-1 cells [3] = test: Melanin content assay in treated MNT-1 cells; format: cell-based, human; settings: 1 μM, 72 hours
Protocol: as §1
(§3) MNT-1 cells treated with cp-asiTYR(4)-1 as described above were tested for melanin content. After 72 hours of incubation in the presence of cp-asiTYR, the MNT-1 cells were collected, lysed with RIPA buffer (GE) and centrifuged at 13000 rpm. The resulting melanin pellet was dissolved in 100 μL of 1N NaOH (containing 10% DMSO) at 85° C. for 15 minutes and light absorption and melanin production were measured.
as §3, with “cp-asiTYR(4) 21AS-1 or cp-asiTYR(4) 19AS-5” for “cp-asiTYR(4)-1”
MNT-1 cells were cultured in Minimum Essential Media (Welgene) containing 20% fetal bovine serum (Gibco), 100 μg/ml penicillin/streptomycin, 10% 200 mM HEPES (Welgene) and 10% Dulbecco's modified Eagle's medium (Welgene). One day prior to treatment, 6.5×10^4MNT-1 cells were seeded in 12-well plates. Four hours prior to treatment, the cell media was replaced with 900 μL of FBS-containing media. The PF6-complexed asiRNA or lasiRNA was added to the cells and the cells were incubated for 24 hours, at which point the media was replaced. Tyrosinase mRNA levels were measured using real-time RT-PCR 24 hours after media replacement.
To test the treated MNT-1 cells for tyrosinase protein expression and melanin production, western blot and melanin content assays were performed as described above 48 hours after media replacement.

MNT-1 cells [4] = test: Color change (lightening) of MNT-1 cell pellets; format: cell-based, human; settings: 1 μM or 3 μM, 72 hours, FIG. 5
Protocol: as §1
After 72 hours, cells were pelleted and the color change of the cells was observed.

MNT-1 cells [5] = test: Cytotoxicity (LDH, CytoTox96) and cell viability (CCK-8) in MNT-1 cells; format: cell-based, human; settings: 24 hours, LDH and CCK-8 assays, FIG. 6
Protocol: as §5

[6] = test system: MEL-300-B reconstructed skin model; test: Light microscopy of melanocytes in reconstructed skin model MEL-300-B; format: cell-based; settings: 5 μM every day for 13 days, day 14, light microscopy
Protocol: (§4) Tyrosinase expression and melanin level was analyzed in an cp-asiTYR#4-1 treated 3-D skin model. MEL-300-B (MatTek), a reconstructed skin model, was used in this study. MEL-300-B was stabilized in EPI-100-NMM-113 media 24 hours before treatment with cp-asiTYR#4-1. […] MEL-300-B samples were treated with cp-asiTYR#4-1 every day for 13 days (final concentration=5 μM) by adding cp-asiTYR#4-1 directly to the media. As a control, other MEL-300-B samples were treated with kojic acid (Sigma, 2% final) as depicted in FIG. 14(a). The samples were harvested at day 14 and the melanocytes in the sample were analyzed using light microscopy. […] Melanin level in each sample was analyzed using Fontana-Massons staining.

[7] = test system: MEL-300-B reconstructed skin model; test: Fontana-Massons staining for melanin in reconstructed skin model MEL-300-B; format: cell-based; settings: 5 μM every day for 13 days, day 14, Fontana-Massons staining
Protocol: as §4

tyrosinase mRNA = test: Tyrosinase mRNA level in reconstructed skin model MEL-300-B by real-time PCR; format: cell-based; settings: 5 μM every day for 13 days, day 14, FIG. 14(d)
Protocol: as §4
In order to analyze mRNA level at day 14, samples were harvested in Isol-RNA lysis reagent (5PRIME) and homogenized by using a homogenizer (IKA). Total RNA from the each sample was extracted. For each sample, 500 ng of the extracted RNA was used for cDNA synthesis using the high-capacity cDNA reverse transcription kit (Applied Biosystems) according to the manufacturer's instructions. Quantitative real-time PCR was then performed using the StepOne real-time PCR system (Applied Biosystems). Amplification of the tyrosinase cDNA was detected using a power SYBR green PCR master Mix (Applied Biosystems). GAPDH was amplified as an internal control.

tyrosinase protein [8] = test: Western blot of tyrosinase protein in reconstructed skin model MEL-300-B; format: cell-based; settings: 5 μM every day for 13 days, day 14, FIG. 14e
Protocol: as §4
Protein level analysis was conducted as using western blot. Harvested samples in RIPA buffer (GE) were homogenized by using homogenizer (IKA) and protein from the each sample was obtained. Fifteen micrograms of the total protein extract were loaded onto a 12% SDS-PAGE gel and electrophoresed at 120 V. After electrophoresis, the proteins were transferred to PVDF membrane (Bio-rad) that had been previously activated with methanol (Merck) for 1 hour at 300 mA. The membrane was blocked for 1 hour at the room temperature with 5% skim milk (Seoul Milk) and then incubated overnight at 4° C. in 5% skim milk containing anti-tyrosinase antibody (Santa Cruz) and anti-β-actin antibody (Santa Cruz). […]

[9] = test system: MEL-300-B reconstructed skin model; test: Melanin content assay in reconstructed skin model MEL-300-B; format: cell-based; settings: 5 μM every day for 13 days, day 14, FIG. 14(f)
Protocol: as §4
To test melanin content, samples were harvested at day 14, lysed with RIPA buffer (GE) and centrifuged at 13000 rpm. The resulting pellet was dissolved in 100 μL of 1N NaOH (containing 10% DMSO) at 85° C. for 15 minutes and light absorption and melanin production were measured.

HaCaT cells [10] = test system: HaCaT cells
Protocol: as §5

With `OC[C@H]1O[C@@H](Oc2ccc(O)cc2)[C@H](O)[C@@H](O)[C@@H]1O` [arbutin] the “cytotoxicity / cell viability” value (HaCaT cells [1]) was “cytotoxicity was observed”.
`Oc1ccc(O)cc1` [hydroquinone] was tested, and the “cytotoxicity / cell viability” value (HaCaT cells [1]) was “cytotoxicity was observed”.
In the case of “cp-asiTYR(4) 19AS-5: S: GCUGACAGGAGAUG*A*A*cholesterol (SEQ ID NO: 131); AS: UUCAUCUCCUGUCAG*C*mU*mU*mC (SEQ ID NO: 160) (sense rGrCrUrGrArCrArGrGrArGrArUrG*rA*rA*{Chol}; antisense rUrUrCrArUrCrUrCrCrUrGrUrCrArG*rC*mU*mU*mC; siRNA)”, the “relative inhibitory activity on tyrosinase protein” value (tyrosinase protein [2]; 1 μM and 3 μM, FIG. 8) is reported as “slightly higher inhibitory activity than cp-asiTYR(4) 21AS-1”, the “inhibition in melanin production” value (MNT-1 cells [3]; FIG. 9) is reported as roughly 50% and the “inhibition in melanin production compared with arbutin” value (MNT-1 cells [3]; FIG. 9) is reported as “higher than the inhibition shown in MNT-1 cells treated with 2 mM arbutin”.
“cp-asiTYR(4)-1: S: GCUGACAGGAGAUG*A*A*cholesterol (SEQ ID NO: 131); AS: UUCAUCUCCUGUCAGCU*U*C*U*G (SEQ ID NO: 132) (sense GCUGACAGGAGAUGAA; antisense UUCAUCUCCUGUCAGCUUCUG; siRNA; sense: linkages o13 s2 (s phosphorothioate, o phosphodiester), 3' *{Chol}, sugars by position and methylation of C not given here; antisense: linkages o16 s4 (s phosphorothioate, o phosphodiester), sugars by position and methylation of C not given here)” was tested, and the tyrosinase protein inhibition (tyrosinase protein [2]; 1 μM or 3 μM, 72 hours, without transfection vehicle, FIG. 3) was no less than 70%, the “relative inhibitory activity on tyrosinase protein” value (tyrosinase protein [2]; 1 μM to 0.1 μM, FIG. 10) was “slightly higher inhibitory activity than cp-asiTYR(4) 19AS-7” and the “tyrosinase inhibition ability compared with other tyrosinase inhibitors” value (tyrosinase protein [2]; 72 hours, western blot, FIG. 3) was “higher efficiency in the tyrosinase inhibition ability than other tyrosinase inhibitors such as Hydroquinone and Arbutin”. The “inhibition in melanin production compared with hydroquinone and arbutin” value (MNT-1 cells [3]; FIG. 4) was “higher than when treated with compounds commonly used for melanin production, including hydroquinone (20 μM) and arbutin (2 mM)”, the “inhibition in melanin production” value (MNT-1 cells [3]; FIG. 9) was roughly 50% and the “inhibition in melanin production compared with arbutin” value (MNT-1 cells [3]; FIG. 9) was “higher than the inhibition shown in MNT-1 cells treated with 2 mM arbutin”. For the same compound, the “inhibition in melanin production” value (MNT-1 cells [3]; without transfection vehicle, FIG. 4) was “greater than 60%”, the “color of treated cells” value (MNT-1 cells [4]) was “lighter than untreated MNT-1 control cells (NT), hydroquinone treated cells and arbutin treated cells” and the “cytotoxicity / cell viability” value (MNT-1 cells [5]) was “no cytotoxicity or loss of cell viability was observed”. For the same compound, the level of melanocytes [6] was “reduced the level of melanocytes”, the level of melanin [7] was “reduced the level of melanin” and the “level of tyrosinase mRNA” value (tyrosinase mRNA) was “reduced the level of tyrosinase mRNA”. For the same compound, the tyrosinase protein level (tyrosinase protein [8]) was “potent knockdown of tyrosinase protein”, the “melanin level (melanin content)” value [9] was “reduced melanin level” and the “cytotoxicity / cell viability” value (HaCaT cells [10]) was “no cytotoxicity or loss of cell viability was observed”.

From US10512600B2, “RNA complexes that inhibit melanin production” (OliX Pharmaceuticals, Inc., priority 2015, dated 2019)
